Our source for the EC50 values is patent publication US8835456B1, “NS5A inhibitors useful for treating HCV” (Achillion Pharmaceuticals, Inc., priority 2011, dated 2014).

In general, EC50 refers to the midpoint of the concentration-response curve.

The assay has as its system Hepatitis C replicon. The assay is described as follows: HCV replicon replication assay (NPT level by captured ELISA). The assay is classed as cell-based. The settings on record: Hepatitis C virus, Huh-7, 72 h. On the procedure:
Compounds claimed herein are tested for the ability to inhibit viral replication of the Hepatitis C replicon in cultured cells in which the HCV replicon construct has been incorporated. The HCV replicon system was described by Bartenschlager, et. al (Science, 285, pp. 110-113 (1999)). The replicon system is predictive of in vivo anti-HCV activity; compounds that are active in humans uniformly evidence activity in the replicon assay.
In this assay HCV replicon containing cells are treated with different concentrations of the test compound to ascertain the ability of the test compound to suppress replication of the HCV replicon. As a positive control, HCV replicon-containing cells are treated with different concentrations of interferon alpha, a known inhibitor of HCV replication. The replicon assay system includes Neomycin Phosphotransferase (NPT) as a component of the replicon itself in order to detect the transcription of replicon gene products in the host cell. Cells in which the HCV replicon is actively replicating have high levels of NPT; the level of NPT is proportional to HCV replication. […] The NPT level of each sample is measured using a captured ELISA.
A protocol for testing compounds for the ability to inhibit viral replication of the Hepatitis C replicon cultured cells in which the replicon construct has been incorporated, follows.
The HCV genome consists of a single ORF that encodes a 3000 amino acid polyprotein. The ORF is flanked on the 5′ side by an untranslated region that serves as an internal ribosome entry site (IRES) and at the 3′ side by a highly conserved sequence necessary for viral replication (3′-NTR). The structural proteins, necessary for viral infection, are located near the 5′ end of the ORF. The non-structural proteins, designated NS2 to NS5B comprise the remainder of the ORF. […]
HCV replicon-containing cells are examined under a microscope to ensure that cells growing well. […] The cells are counted. […]
(In general: Replicon systems follow genome replication, usually without infectious particles.)
Compound `COC(=O)N[C@H](C(=O)N1C2CCC(C2)[C@H]1c1nc(-c2ccc(-c3ccc(-c4c[nH]c([C@@H]5CC6CCCCC6N5C(=O)[C@@H](NC(=O)OC)C(C)C)n4)cc3)cc2)c[nH]1)C(C)C` (stereo partly drawn) [Compound 10] returned an EC50 below 10 nM. With `COC(=O)N[C@H](C(=O)N1C2CCC(C2)[C@H]1c1nc(-c2ccc(-c3ccc(-c4c[nH]c([C@@H]5CC6CCCCC6N5C(=O)[C@@H](NC(=O)OC)C(C)C)n4)cc3)nc2)c[nH]1)C(C)C` (stereo partly drawn) [Compound 14] the figure was below 10 nM.

`COC(=O)N[C@H](C(=O)N1C2CCC(C2)[C@H]1c1nc(-c2ccc(-c3ccc(-c4c[nH]c([C@@H]5CC6CCCCC6N5C(=O)[C@@H](NC(=O)OC)C(C)C)n4)cc3)s2)c[nH]1)C(C)C` (stereo partly drawn) [Compound 15] came in with an EC50 below 10 nM.
